{
  "source": "patent US11998553B2",
  "about": "“Certain (2S)-N-[(1S)-1-cyano-2-phenylethyl]-1,4-oxazepane-2-carboxamides for treating lupus nephritis” (Insmed Incorporated, priority 2018, dated 2024)",
  "tested_on": "NZB/WF1 mice",
  "experiment": "Accelerated lupus nephritis model in mice (Ad-IFNα5 injection)",
  "type": "in vivo",
  "experimental": "INS1007 as a potential treatment for LN was assessed. 10-11 week old female New Zealand Black/New Zealand White F1 (NZB/WF1) mice (Jackson Laboratory) were subjected to a single injection of an adenovirus expressing IFNα5 (Ad-IFNα5, BioXcell, cat #BE0241, clone AR1-5A3) to accelerate the clinical manifestations of LN. FIG. 1 provides a schematic overview of the study design.\nThe duration of the study was 8 weeks from Ad-IFNα5 injection.\nUrine and blood collection was carried out at baseline (immediately after Ad-IFNα5 injection), and at weeks 2, 4, 6 and 8. Total protein (by chemstick), albumin (by ELISA) and creatinine (by a colorimetric assay kit) was measured in urine and blood urea nitrogen (BUN) was measured in plasma.\nAnimals were sacrificed at 8 weeks and the left kidney of each animal was used for histopathology analysis. Pathology scores are summed from individual scores of three aspects: glomerulonephritis, tubular protein and nephropathy and were scored by a Certified Veterinary Pathologist.\nThe right kidneys of each animal were used for FACS analysis. Right kidneys were digested and subjected to Percoll centrifugation, fixable-viability-dye and surface staining for the following markers: CD45, CD3, CD11b, F4/80, Ly6G and Ly6C. Results of FACS are provided at FIGS. 7-13.",
  "data": [
    {"smiles": "Cn1c(=O)oc2ccc(-c3ccc(C[C@@H](C#N)NC(=O)[C@@H]4CNCCCO4)cc3)cc21", "note": "[INS1007, (2S)—N-{(1S)-1-cyano-2-[4-(3-methyl-2-oxo-2,3-dihydro-1,3-benzoxazol-5-yl)phenyl]ethyl}-1,4-oxazepane-2-carboxamide]", "values": [
      {"measurement": "pseudo-survival (urine total protein less than 750 mg/dL)", "setting": "days post Ad-IFNα5 injection, INS1007 0.1, 1, 10 mg/kg PO twice daily, FIG. 5", "result": "increased “pseudo-survival” (and decreased total protein concentration) in a dose dependent manner"},
      {"measurement": "renal pathology score sum (glomerulonephritis, tubular protein, nephropathy)", "setting": "left kidney histopathology at 8 weeks, vs vehicle, FIG. 6", "result": "decreased renal pathology as compared to vehicle control"},
      {"measurement": "blood urea nitrogen (BUN) levels", "setting": "plasma BUN (mg/dL), 6 weeks after model induction, INS1007 0.1, 1, 10 mg/kg PO twice daily, FIG. 4", "result": "decreased in animals treated with INS1007 in a dose dependent matter"},
      {"measurement": "T-lymphocyte percent of total kidney cells", "setting": "right kidney FACS, CD45+, CD3+, week 8, FIG. 13", "result": "significantly decreased"},
      {"measurement": "Ly6C+ macrophage percent of total kidney cells", "setting": "right kidney FACS, CD45+, CD11b+, F4/80+, Ly6C+, Ly6G−, week 8, FIG. 11", "result": "significantly decreased"},
      {"measurement": "Ly6C+ monocyte percent of total kidney cells", "setting": "right kidney FACS, CD45+, CD11b+, Ly6G−, Ly6C+, week 8, FIG. 10", "result": "significantly decreased"},
      {"measurement": "myelocyte percent of total kidney cells", "setting": "right kidney FACS, CD45+, CD11b+, week 8, FIG. 8", "result": "significantly decreased"},
      {"measurement": "urinary protein concentration", "setting": "urine total protein by chemstick (mg/dL), week 8, INS1007 0.1, 1, 10 mg/kg PO twice daily from week 2, FIG. 3", "result": "decrease in urinary protein concentration (mg/dL) in a dose dependent manner"}
    ]}
  ]
}
